Test results reported in patent publication US12509454B2, “Thiadiazolyl derivatives” (IDEAYA Biosciences, Inc., priority 2019, dated 2025).

Molecular target: Pol theta (1-899) (Homo sapiens (Human), UniProt O75417)
Assay: Pol theta ATPase activity, NADH oxidation-coupled enzymatic assay
Format: biochemical
Settings: Pol theta (1-899) 10 nM, ATP, dT50 ssDNA, absorbance 340 nm, 10-point dilution series; read-out: ATPase NADH coupling:Standard Screening:hPolQ IC50
How it was run: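 Pol theta (1-899), 10 nM, preincubated 15 min at RT with 10-point compound series in Tris pH 7.80/KCl/MgCl2 buffer, then given 100 μM ATP plus 300 nM dT50 ssDNA with PK/LDH-coupled NADH oxidation. A340 followed for 30 min; rate slopes fitted with a four-parameter model for IC50.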

Sequence of Pol theta (1-899) (O75417 1-899): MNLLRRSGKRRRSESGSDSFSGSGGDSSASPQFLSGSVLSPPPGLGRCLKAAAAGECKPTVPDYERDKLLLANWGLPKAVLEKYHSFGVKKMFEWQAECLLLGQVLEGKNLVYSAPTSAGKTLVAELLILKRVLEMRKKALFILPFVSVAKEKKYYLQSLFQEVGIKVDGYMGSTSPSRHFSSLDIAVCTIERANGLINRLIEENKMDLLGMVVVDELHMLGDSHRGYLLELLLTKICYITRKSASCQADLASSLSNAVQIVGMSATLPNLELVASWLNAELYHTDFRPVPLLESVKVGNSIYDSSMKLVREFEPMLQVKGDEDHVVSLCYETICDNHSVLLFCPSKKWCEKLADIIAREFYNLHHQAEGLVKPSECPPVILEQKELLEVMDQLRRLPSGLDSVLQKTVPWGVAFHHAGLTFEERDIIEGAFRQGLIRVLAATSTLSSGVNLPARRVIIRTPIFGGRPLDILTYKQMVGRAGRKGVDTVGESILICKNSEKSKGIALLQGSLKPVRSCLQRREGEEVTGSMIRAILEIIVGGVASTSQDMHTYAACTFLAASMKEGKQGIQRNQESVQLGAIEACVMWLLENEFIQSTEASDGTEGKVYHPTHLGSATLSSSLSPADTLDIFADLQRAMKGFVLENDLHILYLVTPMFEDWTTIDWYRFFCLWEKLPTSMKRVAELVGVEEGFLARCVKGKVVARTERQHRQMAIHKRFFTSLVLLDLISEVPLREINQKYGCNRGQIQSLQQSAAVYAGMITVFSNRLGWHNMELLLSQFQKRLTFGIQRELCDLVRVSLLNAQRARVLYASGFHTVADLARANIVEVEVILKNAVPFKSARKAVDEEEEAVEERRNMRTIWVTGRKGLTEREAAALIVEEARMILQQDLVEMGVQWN

| SMILES | IC50 [nM] |
| --- | --- |
| O=C1CCN(c2ncccc2C(=O)Nc2nnc(OCc3ccc(Cl)cc3)s2)CCN1 [Example 61, N-(5-((4-chlorobenzyl)oxy)-1,3,4-thiadiazol-2-yl)-2-(5-oxo-1,4-diazepan-1-yl)nicotinamide] | 500 to 1000 |
| N#Cc1cnc(N2CCOCC2)c(C(=O)Nc2nnc(OCc3ccc(Cl)cn3)s2)c1 [Example 33, N-(5-((5-chloropyridin-2-yl)methoxy)-1,3,4-thiadiazol-2-yl)-5-cyano-2-morpholinonicotinamide] | 500 to 1000 |
| O=C(Nc1nnc(OCc2ccc(Cl)cc2)s1)c1ccncc1N1C2CCC1COC2 [Example 176, N-[5-[(4-chlorophenyl)methoxy]-1,3,4-thiadiazol-2-yl]-3-[3-oxa-8-azabicyclo[3.2.1]octan-8-yl]pyridine-4-carboxamide] | ≤ 200 |
| NC(=O)c1ccc(C(=O)Nc2nnc(OCc3ccc(Cl)cc3)s2)c(N2CCOCC2)n1 [Example 21, N^5-(5-((4-chlorobenzyl)oxy)-1,3,4-thiadiazol-2-yl)-6-morpholinopyridine-2,5-dicarboxamide] | 1000 to 10000 |
| N#Cc1ccc(OC(F)F)c(-c2cnccc2C(=O)Nc2nnc(OCc3ccc(Cl)cc3)s2)c1 [Example 108, N-(5-((4-chlorobenzyl)oxy)-1,3,4-thiadiazol-2-yl)-3-(5-cyano-2-(difluoromethoxy)phenyl)isonicotinamide] | ≤ 200 |
| O=C(Nc1nnc(OCc2ccc(F)cc2)s1)c1cccnc1N1CCOCC1 [Example 1, N-(5-((4-fluorobenzyl)oxy)-1,3,4-thiadiazol-2-yl)-2-morpholinonicotinamide] | 1000 to 10000 |

Continued, values first:

| IC50 [nM] | SMILES |
| --- | --- |
| ≤ 200 | COc1cc(-c2ccccc2OC)c(C(=O)Nc2nnc(OCc3ccc(Cl)cn3)s2)cn1 [Example 222, N-(5-((5-chloropyridin-2-yl)methoxy)-1,3,4-thiadiazol-2-yl)-6-methoxy-4-(2-methoxyphenyl)nicotinamide] |
| ≤ 200 | COc1ccccc1-c1cnccc1C(=O)Nc1nnc(OCc2ccccc2)s1 [Example 174, N-(5-(benzyloxy)-1,3,4-thiadiazol-2-yl)-3-(2-methoxyphenyl)isonicotinamide] |
| ≤ 200 | N#Cc1ccccc1-c1cnccc1C(=O)Nc1nnc(OCc2ccc(Cl)cc2)s1 [Example 126, N-(5-((4-chlorobenzyl)oxy)-1,3,4-thiadiazol-2-yl)-3-(2-cyanophenyl)isonicotinamide] |
| ≤ 200 | COc1ccccc1-n1cncc1C(=O)Nc1nnc(OCc2ccc(Br)cc2)s1 [Example 86, N-(5-((4-bromobenzyl)oxy)-1,3,4-thiadiazol-2-yl)-1-(2-methoxyphenyl)-1H-imidazole-5-carboxamide] |
| ≤ 200 | COc1cccc(Cl)c1-c1cnccc1C(=O)Nc1nnc(OCc2ccc(Cl)cc2)s1 [Example 125, 3-(2-chloro-6-methoxyphenyl)-N-(5-((4-chlorobenzyl)oxy)-1,3,4-thiadiazol-2-yl)isonicotinamide] |
| ≤ 200 | O=C(Nc1nnc(OCc2ccc(Cl)cc2)s1)c1ccncc1-c1ccccc1OC1COC1 [Example 134, N-[5-[(4-chlorophenyl)methoxy]-1,3,4-thiadiazol-2-yl]-3-[2-(oxetan-3-yloxy)phenyl]pyridine-4-carboxamide] |
| ≤ 200 | O=C(Nc1nnc(OCc2ccc(Cl)cc2)s1)c1cnncc1-c1ccccc1OC(F)F [Example 112, N-(5-((4-chlorobenzyl)oxy)-1,3,4-thiadiazol-2-yl)-5-(2-(difluoromethoxy)phenyl)pyridazine-4-carboxamide] |
| ≤ 200 | COc1ccc(C#N)cc1-c1cnccc1C(=O)Nc1nnc(OCc2ccc(Cl)cc2)s1 [Example 123, N-(5-((4-chlorobenzyl)oxy)-1,3,4-thiadiazol-2-yl)-3-(5-cyano-2-methoxyphenyl)isonicotinamide] |
| ≤ 200 | COc1ccccc1-c1cnc(C#N)cc1C(=O)Nc1nnc(OCc2ccc(Cl)cc2)s1 [Example 151, N-(5-((4-chlorobenzyl)oxy)-1,3,4-thiadiazol-2-yl)-2-cyano-5-(2-methoxyphenyl)isonicotinamide] |
